Common to all, as to type: biochemical
For one assay, the target named is T1, KAT8 (Homo sapiens, UniProt Q9H7Z6).
T1 construct: using the previously purified KAT8 (173–458, 5 nM); 6xHis tag with TEV protease cleavage site (N, cleaved yes); made in house; host or cells: E. coli BL21(DE3)
T1 sequence (Q9H7Z6 173-458): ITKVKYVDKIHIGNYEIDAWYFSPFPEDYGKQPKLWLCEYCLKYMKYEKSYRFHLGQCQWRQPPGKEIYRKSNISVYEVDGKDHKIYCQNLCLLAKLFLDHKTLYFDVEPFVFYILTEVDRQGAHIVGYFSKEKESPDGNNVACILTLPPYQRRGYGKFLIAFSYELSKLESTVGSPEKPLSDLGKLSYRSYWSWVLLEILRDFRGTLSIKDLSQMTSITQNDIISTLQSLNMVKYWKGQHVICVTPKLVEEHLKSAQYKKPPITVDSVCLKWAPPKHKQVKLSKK
In words: Radioactive KAT8 inhibition assay. As to the method: Purified KAT8 was incubated with the relevant inhibitor (1% DMSO final) in a 2-fold serial dilution starting at 200 μM for 20 min at rt. Then, [^3H]Ac-CoA and biotinylated peptide were added to a total assay volume of 50 μL and the reaction mixture was incubated at rt for 4 h. The reaction was stopped, and the mixture was transferred to a 96-well streptavidin scintillant coated FlashPlate (Perkin Elmer) and incubated for 60 min at rt. The FlashPlate was washed with 0.1% Tween-20, and the liquid scintillation counting (MicroBeta Microplate Counter, Perkin Elmer) was employed to measure the radioactive signal. Experiments were performed in biological triplicates. Signal reduction compared to control was plotted (as inhibition percentage) as a function of compound concentration and fitted by nonlinear regression (GraphPad Prism 8.0) finally yielding the IC50 values.

The target of the next assay is T2, KAT3B (Homo sapiens, UniProt Q09472).
T2 construct: KAT3B (aa 1284–1672, 1 nM); purchased Reaction Biology Corporation
T2 sequence (Q09472 1284-1672): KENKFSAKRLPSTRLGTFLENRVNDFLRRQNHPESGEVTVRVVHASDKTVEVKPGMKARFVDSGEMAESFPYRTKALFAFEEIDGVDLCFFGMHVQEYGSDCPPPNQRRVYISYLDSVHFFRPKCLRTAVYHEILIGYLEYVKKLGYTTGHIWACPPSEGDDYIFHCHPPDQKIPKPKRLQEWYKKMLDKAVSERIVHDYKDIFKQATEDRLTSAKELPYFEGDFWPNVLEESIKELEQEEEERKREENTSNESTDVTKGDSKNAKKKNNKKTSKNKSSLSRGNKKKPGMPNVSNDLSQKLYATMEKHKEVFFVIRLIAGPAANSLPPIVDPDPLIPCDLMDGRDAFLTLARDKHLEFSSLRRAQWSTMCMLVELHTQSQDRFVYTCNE
Kind of assay: HotSpot KAT assay, KAT3B. As to the method: The effects of the compounds on other KATs were determined using the HotSpot KAT assay (Reaction Biology Corporation, Malvern, PA, USA) according to the supplier’s procedure. […] Histone peptide acetylation was assessed by liquid scintillation counting using a Tri-Carb 2800TR Liquid Scintillation Analyzer (Perkin Elmer). Experiments were performed in biological triplicates. Signal reduction compared to control was plotted (as inhibition percentage) as a function of compound concentration. In cases in which an IC50 was calculated, the values were fitted by nonlinear regression (GraphPad Prism 8.0).

The next assay has as its target T3, KAT2B (Homo sapiens, UniProt Q92831).
T3 construct: KAT2B (aa 492–658, 25 nM); purchased Reaction Biology Corporation
Kind of assay: HotSpot KAT assay, KAT2B. The following applies: enzyme 25 nM; NI = no inhibition at 200 μM; mean ± SD of three independent experiments. The protocol: The effects of the compounds on other KATs were determined using the HotSpot KAT assay (Reaction Biology Corporation, Malvern, PA, USA) according to the supplier’s procedure. The recombinant catalytic domains of human KAT2A (aa 323–837, 15 nM), KAT2B (aa 492–658, 25 nM), KAT3B (aa 1284–1672, 1 nM), KAT6A (aa 488–778, 10 nM), KAT6B (aa 657–1069, 10 nM), and full length human KAT5 (25 nM) and KAT7 (25 nM) were used. Each enzyme was incubated with the relevant histone peptide [H3 peptide for KAT2A, KAT2B, KAT3B, KAT6A, and KAT7 (2.5–5 μM, depending on the KAT isoform); H2A peptide for KAT5 (1.25 μM); H4 peptide for KAT6B (2.5 μM)] as a substrate and radio-isotope-labeled [^3H]Acetyl-CoA (0.2–1.5 μM, depending on the KAT isoform) as an acetyl donor in the assay buffer [50 mM Tris–HCl (pH 8.0), 50 mM NaCl, 0.1 mM EDTA, 1 mM DTT, 0.1 mM PMSF, 1% DMSO] for 1 h at 30 °C in the presence or absence of various compounds (1% DMSO final) titrated in a 2-fold serial dilution starting at 200 μM. Histone peptide acetylation was assessed by liquid scintillation counting using a Tri-Carb 2800TR Liquid Scintillation Analyzer (Perkin Elmer). Experiments were performed in biological triplicates. Signal reduction compared to control was plotted (as inhibition percentage) as a function of compound concentration. In cases in which an IC50 was calculated, the values were fitted by nonlinear regression (GraphPad Prism 8.0).

The mark [1] stands for this setting: read-out: IC50 KAT8 (5 nM), enzyme 5 nM, 2-fold serial dilution from 200 μM, NI = no inhibition at 200 μM, mean ± SD of three independent experiments.

Structures are written as SMILES. Read-outs that look alike come from different tables or passages of the source.

In general, IC50 refers to the concentration that inhibits the measured activity by half.

T3 sequence (Q92831 492-658): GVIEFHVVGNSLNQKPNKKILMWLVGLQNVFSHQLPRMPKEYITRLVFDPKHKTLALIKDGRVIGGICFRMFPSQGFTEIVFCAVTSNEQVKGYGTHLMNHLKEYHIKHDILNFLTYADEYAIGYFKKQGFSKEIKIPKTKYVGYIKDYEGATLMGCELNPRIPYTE

With `CC1=NN(c2ccc(C(=O)O)cc2)C(=O)C1=Cc1ccco1` (mixture of isomers) [Compound 20, 4-(4-(Furan-2-ylmethylene)-3-methyl-5-oxo-4,5-dihydro-1H-pyrazol-1-yl)benzoic Acid], the IC50 on KAT8 was 16.8 ± 0.9 µM; against KAT3B, 6.3 ± 0.4 µM; at KAT2B, over 200 µM.

Turning to `CC1=NN(c2ccc(C(=O)O)cc2)C(=O)/C1=C\c1cc(C(=O)c2ccccc2)c[nH]1` [Compound 1, (Z)-4-(4-((4-Benzoyl-1H-pyrrol-2-yl)methylene)-3-methyl-5-oxo-4,5-dihydro-1H-pyrazol-1-yl)benzoic Acid], the IC50 is 90.5 ± 11.3 µM at KAT8 (setting [1]); 13.6 ± 1 µM on KAT3B (read-out: IC50 KAT3B (1 nM), enzyme 1 nM, NI = no inhibition at 200 μM, mean ± SD of three independent experiments); over 200 µM against KAT2B.

Turning to `CC1=NN(c2ccc(C(=O)O)cc2)C(=O)/C1=C\c1cc(C(=O)c2cccc([N+](=O)[O-])c2)c[nH]1` [Compound 3, (Z)-4-(3-Methyl-4-((4-(3-nitrobenzoyl)-1H-pyrrol-2-yl)methylene)-5-oxo-4,5-dihydro-1H-pyrazol-1-yl)benzoic Acid], on KAT8 (setting [1]), the IC50 is over 150 µM.

Turning to `CC1=NN(c2ccc(C(=O)O)cc2)C(=O)/C1=C\c1cc(C(=O)c2ccc([N+](=O)[O-])cc2)c[nH]1` [Compound 4, (Z)-4-(3-Methyl-4-((4-(4-nitrobenzoyl)-1H-pyrrol-2-yl)methylene)-5-oxo-4,5-dihydro-1H-pyrazol-1-yl)benzoic Acid], the IC50 on KAT8 (setting [1]) was over 200 µM.

As to `CC1=NN(c2ccc(C(=O)O)cc2)C(=O)/C1=C\c1cc(C(=O)c2cccc(Cl)c2)c[nH]1` [Compound 6, (Z)-4-(4-((4-(3-Chlorobenzoyl)-1H-pyrrol-2-yl)methylene)-3-methyl-5-oxo-4,5-dihydro-1H-pyrazol-1-yl)benzoic Acid], the IC50 on KAT8 (setting [1]) was over 150 µM.

With `CC1=NN(c2ccc(C(=O)O)cc2)C(=O)/C1=C\c1cc(C(=O)c2ccc(Cl)cc2)c[nH]1` [Compound 7, (Z)-4-(4-((4-(4-Chlorobenzoyl)-1H-pyrrol-2-yl)methylene)-3-methyl-5-oxo-4,5-dihydro-1H-pyrazol-1-yl)benzoic Acid], at KAT8 (setting [1]), the IC50 is over 200 µM.

As to `CC1=NN(c2ccc(C(=O)O)cc2)C(=O)/C1=C\c1cc(C(=O)c2ccccc2F)c[nH]1` [Compound 8, (Z)-4-(4-((4-(2-Fluorobenzoyl)-1H-pyrrol-2-yl)methylene)-3-methyl-5-oxo-4,5-dihydro-1H-pyrazol-1-yl)benzoic Acid], the IC50 at KAT8 (setting [1]) was over 150 µM.

For the compound `CC1=NN(c2ccc(C(=O)O)cc2)C(=O)/C1=C\c1cc(C(=O)c2cccc(F)c2)c[nH]1` [Compound 9, (Z)-4-(4-((4-(3-Fluorobenzoyl)-1H-pyrrol-2-yl)methylene)-3-methyl-5-oxo-4,5-dihydro-1H-pyrazol-1-yl)benzoic Acid], the IC50 at KAT8 (setting [1]) is over 200 µM.

Turning to `COc1ccccc1C(=O)c1c[nH]c(/C=C2\C(=O)N(c3ccc(C(=O)O)cc3)N=C2C)c1` [Compound 10, (Z)-4-(4-((4-(2-Methoxybenzoyl)-1H-pyrrol-2-yl)methylene)-3-methyl-5-oxo-4,5-dihydro-1H-pyrazol-1-yl)benzoic Acid], on KAT8, the IC50 was over 150 µM.

For `COc1cccc(C(=O)c2c[nH]c(/C=C3\C(=O)N(c4ccc(C(=O)O)cc4)N=C3C)c2)c1` [Compound 11, (Z)-4-(4-((4-(3-Methoxybenzoyl)-1H-pyrrol-2-yl)methylene)-3-methyl-5-oxo-4,5-dihydro-1H-pyrazol-1-yl)benzoic Acid], the IC50 on KAT8 (setting [1]) is over 200 µM.

Regarding `CC1=NN(c2ccc(C(=O)O)cc2)C(=O)/C1=C\c1cc(C(=O)c2ccccc2O)c[nH]1` [Compound 12, (Z)-4-(4-((4-(2-Hydroxybenzoyl)-1H-pyrrol-2-yl)methylene)-3-methyl-5-oxo-4,5-dihydro-1H-pyrazol-1-yl)benzoic Acid], the IC50 on KAT8 (setting [1]) was over 200 µM.

For `CC1=NN(c2ccc(C(=O)O)cc2)C(=O)/C1=C\c1cc(C(=O)c2cccc(C)c2)c[nH]1` [Compound 14, (Z)-4-(3-Methyl-4-((4-(3-methylbenzoyl)-1H-pyrrol-2-yl)4ethylene)-5-oxo-4,5-dihydro-1H-pyrazol-1-yl)benzoic Acid], at KAT8 (setting [1]), the IC50 is over 200 µM.

For the compound `CC(C)C1=NN(c2ccc(C(=O)O)cc2)C(=O)/C1=C\c1cc(C(=O)c2ccccc2[N+](=O)[O-])c[nH]1` [Compound 15, (Z)-4-(3-Isopropyl-4-((4-(2-nitrobenzoyl)-1H-pyrrol-2-yl)methylene)-5-oxo-4,5-dihydro-1H-pyrazol-1-yl)benzoic Acid], the IC50 on KAT8 was over 150 µM; against KAT2B it was over 200 µM.

Turning to `CC1=NN(c2ccccc2)C(=O)/C1=C\c1cc(C(=O)c2ccccc2)c[nH]1` [Compound 16, (Z)-4-((4-Benzoyl-1H-pyrrol-2-yl)methylene)-5-methyl-2-phenyl-2,4-dihydro-3H-pyrazol-3-one], the IC50 on KAT8 (setting [1]) was over 200 µM.

Turning to `CC1=NN(c2ccccc2)C(=O)/C1=C\c1cc(C(=O)c2ccccc2[N+](=O)[O-])c[nH]1` [Compound 17, (Z)-5-Methyl-4-((4-(2-nitrobenzoyl)-1H-pyrrol-2-yl)methylene)-2-phenyl-2,4-dihydro-3H-pyrazol-3-one], the IC50 at KAT8 (setting [1]) is over 200 µM.

In the case of `CC1=NN(c2ccc(C(=O)O)cc2)C(=O)C1` [Compound 18], the IC50 at KAT8 (setting [1]) was over 200 µM.

Regarding `CC1=NN(c2ccc(C(=O)NCCO)cc2)C(=O)/C1=C\c1ccc[nH]1` [Compound 40, (Z)-4-(4-((1H-Pyrrol-2-yl)methylene)-3-methyl-5-oxo-4,5-dihydro-1H-pyrazol-1-yl)-N-(2-hydroxyethyl)benzamide], the IC50 at KAT8 (setting [1]) amounted to 52.2 ± 3.2 µM.

`CC1=NN(c2ccc(C(=O)NCCCN3CCCC3)cc2)C(=O)/C1=C\c1ccc[nH]1` [Compound 41, (Z)-4-(4-((1H-Pyrrol-2-yl)methylene)-3-methyl-5-oxo-4,5-dihydro-1H-pyrazol-1-yl)-N-(3-(pyrrolidin-1-yl)propyl)benzamide]: the IC50 at KAT8 (setting [1]) was over 200 µM.

As to `CC1=NN(c2ccc(S(=O)(=O)O)cc2)C(=O)/C1=C\c1ccc[nH]1` [Compound 42, (Z)-4-(4-((1H-Pyrrol-2-yl)methylene)-3-methyl-5-oxo-4,5-dihydro-1H-pyrazol-1-yl)benzenesulfonic Acid], at KAT8 (setting [1]), the IC50 is 54.7 ± 4 µM.

With `CC1=NN(c2ccc(S(N)(=O)=O)cc2)C(=O)/C1=C\c1ccc[nH]1` [Compound 43, (Z)-4-(4-((1H-Pyrrol-2-yl)methylene)-3-methyl-5-oxo-4,5-dihydro-1H-pyrazol-1-yl)benzenesulfonamide], the IC50 on KAT8 (setting [1]) stood at 59.4 ± 3.7 µM.
